Patent US20260138970A1, “MODULATORS OF THE CALCIUM SIGNALING CASCADE” (FONDAZIONE TELETHON ETS, priority 2022, published 2026)

Columns and labels:
[1] = system: ENaC; assay: Short-circuit current recordings on human cultured bronchial epithelia, ENaC function; assay type: cell-based; conditions: apical addition; ARN7149 10 μM, ARN11391 20 μM, ARN4550 20 μM, UTP 10 nM; FIG. 9
Excerpt: In a further experimental setting, snapwell supports (cc3801, Corning) carrying differentiated bronchial epithelia generated in vitro were mounted in a vertical chamber resembling an Ussing system with internal fluid circulation (EM-CSYS-8, Physiologic Instruments, San Diego, CA, USA). The apical and basolateral hemichambers were filled with a solution containing (in mM): 126 NaCl, 0.38 KH2PO4, 2.13 K2HPO4, 1 MgSO4, 1 CaCl2), 24 NaHCO3, and 10 glucose. Both sides were continuously bubbled with a gas mixture containing 5% CO2 and 95% air. The temperature of the solution was kept at 37° C. throughout the experiment.
During recordings, the following molecules (in addition to ARN7149, ARN11391, and ARN4550) were added in the apical solution: elastase (SE2093002, Serva); UTP (U6625, Merck); amiloride (A7410, Merck). Transepithelial voltage was short-circuited with a voltage-clamp (VCC MC8, Physiologic Instruments, San Diego, CA, USA) connected to the apical and basolateral chambers via Ag—AgCl electrodes and agar bridges (2% agar in 1 M KCl). The offset between voltage electrodes and the fluid resistance were cancelled before experiments. The resulting short-circuited current from each channel was recorded on a personal computer with the Acquire & Analize 2.3 software (Physiologic Instruments, San Diego, CA, USA).

[2] = system: TMEM16A; assay: HS-YFP assay in ITPR-defective HEK293 cells transiently transfected with TMEM16A; assay type: cell-based; conditions: ionomycin 1 μM, FIG. 2D
[3] = system: FRT cells; assay: Fluo-4 Ca2+ mobilization assay in parental (null) FRT cells; assay type: cell-based, rat; conditions: for potentiation of the Ca2+ increase elicited by UTP, multiple concentrations: UTP 0.25 μM, compounds 1-80 μM, vs vehicle (DMSO), FIG. 8
Protocol: Experiments were performed using the microplate reader described for the HS-YFP assay. FRT and HEK293 cells were cultured until confluence in 96-well microplates (3603, Corning). Cells were washed 2 times with PBS (150 μl/wash) and then loaded for 1 h at 37° C. with 5 μM Fluo-4/AM (Thermo Fisher Scientific; catalog number: F23917) in PBS containing 10 mM glucose, 0.5 mM sulfinpyrazone, and 1% fetal bovine serum. […] Each well was assayed individually. Fluo-4 fluorescence (500 nm excitation, 535 nm emission) was detected every 200 ms for 16-40 s. Two seconds after the start of fluorescence recording, the reader automatically injected 165 μl of a modified PBS containing 136 mM KCl instead of NaCl. This solution also contained 10 mM glucose, 0.5 mM sulfinpyrazone, and UTP or SLIGR-NH2 (CAS #171436-38-7) at a final concentration that depended on the specific cell type. For UTP we used: 0.25 μM for FRT; 1 μM for HEKR2; 5 μM for HEK3XKO, HEKR1, and HEKR3. For SLIGR-NH2 we used: 10 μM for HEKR1; 4 μM for HEKR2. These concentrations were chosen to elicit ˜20% of maximal effect based on UTP and SLIGR-NH2 dose-response relationships. The lower agonist concentrations used for HEKR2 cells, compared to HEKR1 cells, are consistent with the higher affinity of ITPR2 for IP3 (16). The Fluo-4 fluorescence increase was quantified using a procedure compiled in Microsoft Excel after background subtraction and normalization for the initial value measured before UTP addition.
In a further experimental setting, experiments were performed using as above the FLUOstar Omega (BMG Labtech, Offenburg, Germany) microplate reader equipped with syringe pumps and optical excitation/emission filters optimized for yellow fluorescent protein (YFP) fluorescence (ET500/20× and ET535/30m, respectively; Chroma Technology Corporation). FRT and Chem-1 cells were cultured until confluence in 96-well microplates (cc3603, Corning). Cells were washed 2 times with PBS (150 μl/wash) and then loaded for 1 h at 37° C. with 5 μM Fluo-4/AM (Thermo Fisher Scientific; catalog number: F23917) in PBS containing 10 mM glucose, 0.5 mM sulfinpyrazone, and 1% fetal bovine serum. […] Each well was assayed individually. Fluo-4 fluorescence (500 nm excitation, 535 nm emission) was detected every 200 ms for 16-40 s. Two seconds after the start of fluorescence recording, the reader automatically injected 165 μl of a modified PBS containing 136 mM KCl instead of NaCl. This solution also contained, in addition to 10 mM glucose and 0.5 mM sulfinpyrazone, the following agonists: UTP (U6625, Merck) or CCK8s (23371, Cayman Chemical). The Fluo-4 fluorescence increase was quantified using a procedure compiled in Microsoft Excel after background subtraction and normalization for the initial value measured before UTP or CCK8s addition.

[4] = system: PLC; assay: PLC assay in FRT cells expressing PH-PLC-GFP sensor; assay type: cell-based; conditions: pre-incubation with BAPTA/AM; FIG. 3B
Protocol: FRT cells with stable expression of PLC6-PH-GFP, generated in the laboratory of inventors, were cultured up to subconfluent condition in p-Plate96 microplates (Ibidi). Each well of a 96-well microplate was washed 3 times, leaving 125 μl of phosphate-buffered saline (PBS) containing compounds at 10 μM final concentration or vehicle. After 20 min of incubation at 37° C., microplate was moved on the stage of an inverted microscope equipped with GFP excitation/emission filters, 40×oil immersion objective (Olympus, Segrate, Italy), Lambda DG4 illumination system (Sutter Instrument Co., Novato, CA, USA), Prime cmos camera (Photometrics, Tucson, AZ, USA) and MetaMorph imaging acquisition software (Molecular Devices, Sunnyvale, CA, USA). Time-lapse experiments were carried out with 50 ms exposure time, 20 frame/s rate, and 2.4 min total duration. After 20 s and 90 s, UTP 0.25 μM and 100 μM (final concentrations) was respectively added. Analysis was performed with MetaMorph software, by quantifying GFP fluorescence cytoplasmic accumulation in manually selected single cell regions of interest (ROI). After background subtraction, fluorescence recordings were normalized for the initial value.

[5] = target: T1, P2RY2 (Rattus norvegicus, UniProt P41232); assay: Fluo-4 Ca2+ assay in null FRT cells with P2RY2 antagonist; assay type: cell-based; conditions: AR-C118925XX 10 μM; UTP 0.25 μM; FIG. 5B
T1 construct: endogenous in cells; host or cells: null (parental) FRT cells
Protocol: Experiments were performed using the microplate reader described for the HS-YFP assay. FRT and HEK293 cells were cultured until confluence in 96-well microplates (3603, Corning). Cells were washed 2 times with PBS (150 μl/wash) and then loaded for 1 h at 37° C. with 5 μM Fluo-4/AM (Thermo Fisher Scientific; catalog number: F23917) in PBS containing 10 mM glucose, 0.5 mM sulfinpyrazone, and 1% fetal bovine serum. After loading, cells were washed 2 times with PBS-glucose-sulfinpyrazone (150 μl/wash) and incubated for 20 min at 37° C. with 60 μl of PBS plus 10 mM glucose and 0.5 mM sulfinpyrazone containing compounds of interest at 10 μM final concentration or vehicle. Each well was assayed individually. Fluo-4 fluorescence (500 nm excitation, 535 nm emission) was detected every 200 ms for 16-40 s. Two seconds after the start of fluorescence recording, the reader automatically injected 165 μl of a modified PBS containing 136 mM KCl instead of NaCl. This solution also contained 10 mM glucose, 0.5 mM sulfinpyrazone, and UTP or SLIGR-NH2 (CAS #171436-38-7) at a final concentration that depended on the specific cell type. […] The Fluo-4 fluorescence increase was quantified using a procedure compiled in Microsoft Excel after background subtraction and normalization for the initial value measured before UTP addition.

T1 sequence (P41232 whole entry): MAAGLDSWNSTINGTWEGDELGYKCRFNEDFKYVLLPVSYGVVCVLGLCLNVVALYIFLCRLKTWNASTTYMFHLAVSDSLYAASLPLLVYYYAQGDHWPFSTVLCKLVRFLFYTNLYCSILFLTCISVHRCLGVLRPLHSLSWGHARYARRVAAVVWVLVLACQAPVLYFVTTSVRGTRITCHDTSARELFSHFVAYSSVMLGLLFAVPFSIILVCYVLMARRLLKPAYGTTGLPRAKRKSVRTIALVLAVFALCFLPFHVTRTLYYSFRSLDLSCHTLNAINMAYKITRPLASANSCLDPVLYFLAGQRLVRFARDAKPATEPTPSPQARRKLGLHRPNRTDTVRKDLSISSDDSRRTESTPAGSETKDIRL

## O=c1ccn([C@@H]2O[C@H](COP(=O)(O)OP(=O)(O)OP(=O)(O)O)[C@@H](O)[C@H]2O)c(=O)[nH]1 [UTP, reference compound]
[1]
  ENaC current decay (ENaC inhibition), short-circuit current: ENaC current decay

## C[C@H](CCC(=O)O)C[C@H](C)C[C@H](C)C(=O)/C=C(\O)[C@H](C)C[C@H](C)C/C=C/[C@@H](C)[C@@H](O)[C@@H](C)[C@@H](O)C[C@@H]1CC[C@@](C)([C@H]2CC[C@@](C)([C@@H](C)O)O2)O1 [ionomycin, reference compound]
[2]
  activation of TMEM16A when Ca2+ directly increased (HS-YFP): large effect

## COCCN(C(=O)c1cc(OC)c(OC)c(OC)c1)c1nc(-c2ccccc2)cs1 [Eact, reference compound]
[3]; acute addition, compounds 10 μM, Eact 5 μM, FIG. 2B
  direct Ca2+ mobilization in the absence of UTP (Fluo-4): elicits Ca^2+ influx

## O=C(Nc1ccccc1OCC1CCCCO1)C1CC2C=CC1C2 (stereo not shown) [compound 7, N-[2-(Tetrahydropyran-2-ylmethoxy)phenyl]bicyclo[2.2.1]hept-5-ene-2-carboxamide]
[3]
  potentiation of the Ca2+ increase elicited by UTP, multiple concentrations: dose-dependent potentiation

## CC(=O)OCOC(=O)CN(CC(=O)OCOC(C)=O)c1ccccc1OCCOc1ccccc1N(CC(=O)OCOC(C)=O)CC(=O)OCOC(C)=O [BAPTA/AM, 1,2-Bis(2-aminophenoxy)ethane-N,N,N′,N′-tetraacetic acid tetrakis(acetoxymethyl ester), reference compound]
[4]
  PLC activity with/without compounds after Ca2+ chelation: markedly inhibited

## O=C(Nc1ccccc1OCC1CCCCO1)C1CCCN(c2ccccn2)C1 (stereo not shown) [compound 6, 1-(2-Pyridyl)-N-[2-(tetrahydropyran-2-ylmethoxy)phenyl]piperidine-3-carboxamide]
[3]
  potentiation of the Ca2+ increase elicited by UTP, multiple concentrations: dose-dependent potentiation

## Cc1ccc2c(c1)C=Cc1cc(C)ccc1C2c1cn(Cc2ccc(C(=O)Nc3nn[nH]n3)o2)c(=O)[nH]c1=S [AR-C118925XX]
[5]
  effect of UTP alone and of UTP plus potentiators on Ca2+ mobilization: completely blocked
